Source: US20210253562A1, “ACYLSUFONAMIDE COMPOUNDS USEFUL AS EP3 RECEPTOR ANTAGONISTS” (Janssen Pharmaceutica NV, priority 2018, published 2021)

Legend:
[1] = molecular target: T1, EP3 membrane (EP3 receptor) (Homo sapiens, UniProt P43115); test: [3H]-PGE2 binding; EP3 competition binding (SPA)
T1 construct: purchased Millipore HTS092M
T1 sequence (P43115 1-390): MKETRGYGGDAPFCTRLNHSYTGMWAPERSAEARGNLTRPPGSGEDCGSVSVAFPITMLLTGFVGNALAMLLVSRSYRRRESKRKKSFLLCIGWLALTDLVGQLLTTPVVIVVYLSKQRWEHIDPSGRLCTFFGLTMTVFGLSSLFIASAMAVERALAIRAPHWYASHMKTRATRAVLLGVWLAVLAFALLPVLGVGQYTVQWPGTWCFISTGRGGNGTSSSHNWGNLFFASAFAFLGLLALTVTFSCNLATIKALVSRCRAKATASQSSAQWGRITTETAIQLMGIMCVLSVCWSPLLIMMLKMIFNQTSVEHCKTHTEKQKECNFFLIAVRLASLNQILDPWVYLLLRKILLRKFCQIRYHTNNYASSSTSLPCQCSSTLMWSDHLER
Procedure, shortened: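 SPA competition at room temperature, 2 h: EP3 membranes 2 μg/well, 2 nM [3H]-PGE2, 0.1% DMSO, in Tris/MgCl2/EDTA buffer pH 7.4. Compounds in 1:3 serial dilution; scintillation read; Ki by one-site nonlinear fit.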

[2] = molecular target: T2, CHO cells over-expressing the EP3 receptor (Homo sapiens, UniProt P43115); test: CHO cell cAMP assay; EP3 cAMP antagonist dose response (sulprostone reference), HTRF; format: cell-based; settings: sulprostone 700 nM (EC80) and FSK 2 μM (EC70); read-out: CHO_cAMP IC50
T2 construct: expressed in transfected cells; host or cells: CHO cells
T2 sequence (P43115 1-390): T1 sequence (P43115 1-390)
Procedure, shortened: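 EP3-overexpressing CHO cells pre-incubated with test compound, then stimulated 30 min at 37 °C with FSK (2 μM, EC70) plus sulprostone (700 nM, EC80); antagonism seen as restored cAMP. cAMP measured by HTRF 665/615 ratio, converted via on-plate standard curve. IC50 from Hill fit of 11-point dosing.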

Ki [1] [µM] | IC50 [2] [µM] | SMILES
0.026 | 0.16 | COc1ccc(Cl)cc1S(=O)(=O)NC(=O)NC/C(F)=C1\CCCc2cnn(Cc3ccc(Cl)cc3Cl)c21 [Compound #89, (Z)-5-chloro-N-((2-(1-(2,4-dichlorobenzyl)-1,4,5,6-tetrahydro-7H-indazol-7-ylidene)-2-fluoroethyl)carbamoyl)-2-methoxybenzenesulfonamide]
0.037 | 0.272 | COc1ccc(F)cc1S(=O)(=O)NC(=O)NC/C(F)=C1\CCCc2cnn(Cc3ccc(Cl)cc3Cl)c21 [Compound #90, (Z)—N-((2-(1-(2,4-dichlorobenzyl)-1,4,5,6-tetrahydro-7H-indazol-7-ylidene)-2-fluoroethyl)carbamoyl)-5-fluoro-2-methoxybenzenesulfonamide]
0.018 | 0.034 | O=C(NC/C(F)=C1\CCCc2cnn(Cc3ccc(Cl)cc3Cl)c21)NS(=O)(=O)c1cccc(Cl)c1 [Compound #91, (Z)-3-chloro-N-((2-(1-(2,4-dichlorobenzyl)-1,4,5,6-tetrahydro-7H-indazol-7-ylidene)-2-fluoroethyl)carbamoyl)benzenesulfonamide]
> 10 | > 20 | O=C(NC/C(F)=C1/CCCc2onc(-c3ccc(Cl)cc3)c21)NS(=O)(=O)c1ccc(Cl)cc1 [Compound #96, (E)-4-chloro-N-((2-(3-(4-chlorophenyl)-6,7-dihydrobenzo[d]isoxazol-4(5H)-ylidene)-2-fluoroethyl)carbamoyl)benzenesulfonamide]
0.001 | 0.009 | O=C(NC/C=C1\CCCc2cnn(-c3ccc(-c4ccccc4)cc3)c21)NS(=O)(=O)c1cc(Cl)c(Cl)s1 [Compound #99, (E)-N-((2-(1-([1,1′-biphenyl]-4-yl)-1,4,5,6-tetrahydro-7H-indazol-7-ylidene)ethyl)carbamoyl)-4,5-dichlorothiophene-2-sulfonamide]
0.053 | 0.144 | O=C(NC/C(F)=C1/c2c(cnn2Cc2ccc(Cl)cc2Cl)CCC1F)NS(=O)(=O)c1ccc(Cl)cc1 (stereo not drawn) [Compound #101, (E)-4-chloro-N-((2-(1-(2,4-dichlorobenzyl)-6-fluoro-1,4,5,6-tetrahydro-7H-indazol-7-ylidene)-2-fluoroethyl)carbamoyl)benzenesulfonamide]
> 10 | > 20 | O=C(NC/C(F)=C1/CCCCc2cnn(Cc3ccc(Cl)cc3Cl)c21)NS(=O)(=O)c1ccc(Cl)cc1 [Compound #102, (E)-4-chloro-N-((2-(1-(2,4-dichlorobenzyl)-4,5,6,7-tetrahydrocyclohepta[c]pyrazol-8(1H)-ylidene)-2-fluoroethyl)carbamoyl)benzenesulfonamide]
> 10 | > 20 | O=C(NC/C(F)=C1\COCc2cnn(-c3cccc(C(F)(F)F)c3)c21)NS(=O)(=O)c1ccc(Cl)cc1 [Compound #104, (E)-4-chloro-N-((2-fluoro-2-(1-(3-(trifluoromethyl)phenyl)-1,4-dihydropyrano[4,3-c]pyrazol-7(6H)-ylidene)ethyl)carbamoyl)benzenesulfonamide]
0.238 | 0.294 | COc1ccc(-n2ncc3c2/C(=C/CNC(=O)NS(=O)(=O)c2ccc(Cl)cc2)CCC3)cn1 [Compound #105, (E)-4-chloro-N-((2-(1-(6-methoxypyridin-3-yl)-1,4,5,6-tetrahydro-7H-indazol-7-ylidene)ethyl)carbamoyl)benzenesulfonamide]
0.007 | 0.06 | Cc1nn(Cc2ccc(Cl)cc2Cl)c2c1CCC/C2=C(/F)CNC(=O)NS(=O)(=O)c1cc(Cl)c(Cl)s1 [Compound #109, (Z)-4,5-dichloro-N-((2-(1-(2,4-dichlorobenzyl)-3-methyl-1,4,5,6-tetrahydro-7H-indazol-7-ylidene)-2-fluoroethyl)carbamoyl)thiophene-2-sulfonamide]
0.059 | 0.399 | O=C(NC/C(F)=C1\CCCc2cnn(Cc3ccc(Cl)cc3Cl)c21)NS(=O)(=O)c1cc2ccccc2o1 [Compound #111, (Z)—N-((2-(1-(2,4-dichlorobenzyl)-1,4,5,6-tetrahydro-7H-indazol-7-ylidene)-2-fluoroethyl)carbamoyl)benzofuran-2-sulfonamide]
> 10 | > 20 | COc1ccc(F)cc1S(=O)(=O)NC(=O)NC/C(F)=C1/CCCc2cnn(-c3ccc4ccccc4c3)c21 [Compound #112, (E)-5-fluoro-N-((2-fluoro-2-(1-(naphthalen-2-yl)-1,4,5,6-tetrahydro-7H-indazol-7-ylidene)ethyl)carbamoyl)-2-methoxybenzenesulfonamide]
4.1 | 6.9 | COc1ccc(F)cc1S(=O)(=O)NC(=O)NC/C(F)=C1\CCCc2cnn(-c3ccc4ccccc4c3)c21 [Compound #113, (Z)-5-fluoro-N-((2-fluoro-2-(1-(naphthalen-2-yl)-1,4,5,6-tetrahydro-7H-indazol-7-ylidene)ethyl)carbamoyl)-2-methoxybenzenesulfonamide]

More lines, now with the values behind:

SMILES | Ki [1] [µM] | IC50 [2] [µM]
O=C(NC/C=C1\CCCc2cnn(-c3cccc(C(F)(F)F)c3)c21)NS(=O)(=O)c1cc(Cl)c(Cl)s1 [Compound #92, (E)-4,5-dichloro-N-((2-(1-(3-(trifluoromethyl)phenyl)-1,4,5,6-tetrahydro-7H-indazol-7-ylidene)ethyl)carbamoyl)thiophene-2-sulfonamide] | 0.017 | 0.214
O=C(C/C(F)=C1\CCCc2cnn(Cc3ccc(Cl)cc3Cl)c21)NS(=O)(=O)c1cc(Cl)c(Cl)s1 [Compound #93, (Z)-3-(1-(2,4-dichlorobenzyl)-1,4,5,6-tetrahydro-7H-indazol-7-ylidene)-N-((4,5-dichlorothiophen-2-yl)sulfonyl)-3-fluoropropanamide] | 0.006 | 0.017
O=C(NC/C=C1\CCCc2cnn(-c3ncc(Br)cn3)c21)NS(=O)(=O)c1ccc(Cl)cc1 [Compound #94, (E)-N-((2-(1-(5-bromopyrimidin-2-yl)-1,4,5,6-tetrahydro-7H-indazol-7-ylidene)ethyl)carbamoyl)-4-chlorobenzenesulfonamide] | 0.75 | 11.1
O=C(NC/C(F)=C1\CCCc2onc(-c3ccc(Cl)cc3)c21)NS(=O)(=O)c1ccc(Cl)cc1 [Compound #97, (Z)-4-chloro-N-((2-(3-(4-chlorophenyl)-6,7-dihydrobenzo[d]isoxazol-4(5H)-ylidene)-2-fluoroethyl)carbamoyl)benzenesulfonamide] | 4.9 | > 20
O=C(NC/C(F)=C1\CCCCc2cnn(Cc3ccc(Cl)cc3Cl)c21)NS(=O)(=O)c1ccc(Cl)cc1 [Compound #98, (Z)-4-chloro-N-((2-(1-(2,4-dichlorobenzyl)-4,5,6,7-tetrahydrocyclohepta[c]pyrazol-8(1H)-ylidene)-2-fluoroethyl)carbamoyl)benzenesulfonamide] | 0.171 | 0.12
O=C(NC/C(F)=C1/c2c(cnn2Cc2ccc(Cl)cc2Cl)CCC1F)NS(=O)(=O)c1cc(Cl)c(Cl)s1 (stereo not drawn) [Compound #100, (E)-4,5-dichloro-N-((2-(1-(2,4-dichlorobenzyl)-6-fluoro-1,4,5,6-tetrahydro-7H-indazol-7-ylidene)-2-fluoroethyl)carbamoyl)thiophene-2-sulfonamide] | 0.003 | 0.007
COc1ccc(Cl)cc1S(=O)(=O)NC(=O)NC/C(F)=C1/c2c(cnn2Cc2ccc(Cl)cc2Cl)CCC1F (stereo not drawn) [Compound #103, (E)-5-chloro-N-((2-(1-(2,4-dichlorobenzyl)-6-fluoro-1,4,5,6-tetrahydro-7H-indazol-7-ylidene)-2-fluoroethyl)carbamoyl)-2-methoxybenzenesulfonamide] | 0.054 | 0.228
COc1ccc(Cl)cc1S(=O)(=O)NC(=O)NC/C(F)=C1/CCCc2cnn(-c3ccc4ccccc4c3)c21 [Compound #106, (E)-5-chloro-N-((2-fluoro-2-(1-(naphthalen-2-yl)-1,4,5,6-tetrahydro-7H-indazol-7-ylidene)ethyl)carbamoyl)-2-methoxybenzenesulfonamide] | > 10 | > 20
COc1ccc(-n2ncc3c2/C(=C/CNC(=O)NS(=O)(=O)c2cc(Cl)c(Cl)s2)CCC3)cn1 [Compound #107, (E)-4,5-dichloro-N-((2-(1-(6-methoxypyridin-3-yl)-1,4,5,6-tetrahydro-7H-indazol-7-ylidene)ethyl)carbamoyl)thiophene-2-sulfonamide] | 0.002 | 0.027
O=C(NC/C(F)=C1/CCCc2cnn(-c3ccc4ccccc4c3)c21)NS(=O)(=O)c1ccc2c(c1)OCCO2 [Compound #110, (E)-N-((2-fluoro-2-(1-(naphthalen-2-yl)-1,4,5,6-tetrahydro-7H-indazol-7-ylidene)ethyl)carbamoyl)-2,3-dihydrobenzo[b][1,4]dioxine-6-sulfonamide] | > 10 | > 20
O=C(NC/C(F)=C1\CCCc2cnn(-c3ccc4ccccc4c3)c21)NS(=O)(=O)c1ccc2c(c1)OCCO2 [Compound #114, (Z)—N-((2-fluoro-2-(1-(naphthalen-2-yl)-1,4,5,6-tetrahydro-7H-indazol-7-ylidene)ethyl)carbamoyl)-2,3-dihydrobenzo[b][1,4]dioxine-6-sulfonamide] | 14.5 | > 20
